These results are taken from patent US10053431B2, “Tetrahydro-benzodiazepinones” (priority 2013, dated 2018).

Assay [1] has as its target BIR2 domain of XIAP (Homo sapiens (Human), UniProt P98170, C202A/C213G). Description: TR-FRET assay for BIR2 (inhibition of binding of XIAP BIR2 domain to SMAC-derived Peptide A). The conditions noted are these: 6x His-tagged BIR2 domain (aa 124-240 of XIAP) 10 nM, Peptide A 20 nM, TR-FRET; read-out: IC50 BIR2. On the technique in general: TR-FRET usually uses a lanthanide donor and a delayed reading to cut background.

The target of assay [2] is BIR3 domain of XIAP (Homo sapiens (Human), UniProt P98170). Description: TR-FRET assay for BIR3 (inhibition of binding of XIAP BIR3 domain to SMAC-derived Peptide A). The settings on record: 6x His-tagged BIR3 domain (aa 241-356 of XIAP) 10 nM, Peptide A 20 nM, TR-FRET.
BIR3 domain of XIAP, sequence (P98170 241-356 with tags or gaps limits assumed): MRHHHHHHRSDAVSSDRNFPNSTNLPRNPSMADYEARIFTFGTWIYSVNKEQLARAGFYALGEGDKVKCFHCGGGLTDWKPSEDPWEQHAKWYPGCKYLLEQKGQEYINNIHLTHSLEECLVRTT

By IC50 is commonly meant the point on the concentration scale where inhibition reaches its midpoint.

SMILES strings stand for the structures. Where a name gives a salt, the structure may show the parent alone. Where only a bound is given, the exact number is not on record here.

BIR2 domain of XIAP, sequence (P98170 124-240 with tags or gaps C202A/C213G limits assumed): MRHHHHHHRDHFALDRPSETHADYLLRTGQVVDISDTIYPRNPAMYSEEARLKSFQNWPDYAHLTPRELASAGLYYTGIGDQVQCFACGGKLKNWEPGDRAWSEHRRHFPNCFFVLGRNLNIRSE

For `CN[C@@H](C)C(=O)N[C@H]1CN(C(=O)c2ccc(C(O)C(F)(F)F)cc2)c2ccccc2N(Cc2c(OC)ccc3cc(Br)ccc23)C1=O` (mixture of isomers) [Example 32, (S)—N—{(S)-1-(6-Bromo-2-methoxy-naphthalen-1-ylmethyl)-2-oxo-5-[4-(2,2,2-trifluoro-1-hydroxy-ethyl)-benzoyl]-2,3,4,5-tetrahydro-1H-benzo[b][1,4]diazepin-3-yl}-2-methylamino-propionamide hydrochloride, mixture of diastereomers], in assay [1], the IC50 is 25 nM.
Take `CN[C@@H](C)C(=O)N[C@H]1CN(C(=O)c2ccccc2[C@H](C)O)c2ccccc2N(Cc2c(C)ccc3ccccc23)C1=O` (stereo in doubt) [Example 153, (25)-N-[(3S)-1-[2-[(1S)-1-hydroxyethyl]benzoyl]-5-[(2-methylnaphthalen-l-yl)methyl]-4-oxo-2,3-dihydro-1,5-benzodiazepin-3-yl]-2-(methylamino)propanamide;(2S)-N-[(3S)-1-[2-[(1R)-1-hydroxyethyl]benzoyl]-5-[(2-methylnaphthalen-1-yl)methyl]-4-oxo-2,3-dihydro-1,5-benzodiazepin-3-yl]-2-(methylamino)propanamide]: in assay [1], the half-inhibitory concentration (IC50) came out at 52.4 nM.
Turning to `CN[C@@H](C)C(=O)N[C@H]1CN(CCc2ccccc2)c2ccccc2N(Cc2cccc3ccccc23)C1=O` [Example 7, (S)-2-Methylamino-N—((S)-1-naphthalen-1-ylmethyl-2-oxo-5-phenethyl-2,3,4,5-tetrahydro-1H-benzo[b][1,4]diazepin-3-yl)-propionamide trifluoroacetate], the 50% inhibitory concentration (IC50) in assay [1] was found to be 1550 nM.
For `CN[C@@H](C)C(=O)N[C@H]1CN(C(=O)COCCOCCOC)c2ccccc2N(Cc2c(C)ccc3ccccc23)C1=O` [Example 13, (S)—N—[(S)-5-{2-[2-(2-Methoxy-ethoxy)-ethoxy]-acetyl}-1-(2-methyl-naphthalen-1-ylmethyl)-2-oxo-2,3,4,5-tetrahydro-1H-benzo[b][1,4]diazepin-3-yl]-2-methylamino-propionamide hydrochloride], in assay [1], the concentration for half-maximal inhibition (IC50) was found to be 234 nM.
`CN[C@@H](C)C(=O)N[C@H]1CN(C(=O)CC2CCCCC2)c2ccccc2N(Cc2c(OC)ccc3cc(Br)ccc23)C1=O` [Example 13i]: the IC50 in assay [1] worked out at 78 nM.
Regarding `CN[C@@H](C)C(=O)N[C@H]1CN(C(=O)c2ccc(C(=O)C(C)(C)C)cc2)c2ccccc2N(Cc2c(OC)ccc3cc(Br)ccc23)C1=O` [Example 13j], in assay [1], the concentration for half-maximal inhibition (IC50) came to 37 nM.
As for `CN[C@@H](C)C(=O)N[C@H]1CN(C(=O)c2cccc(C(C)=O)c2)c2ccccc2N(Cc2c(OC)ccc3cc(Br)ccc23)C1=O` [Example 13l], the IC50 in assay [1] is 67 nM.
As to `CN[C@@H](C)C(=O)N[C@H]1CN(C(=O)Cc2ccc(C(C)=O)cc2)c2ccccc2N(Cc2c(OC)ccc3cc(Br)ccc23)C1=O` [Example 13o], the half-inhibitory concentration (IC50) in assay [1] is 28 nM.
As for `CN[C@@H](C)C(=O)N[C@H]1CN(C(=O)CC23CC4CC(CC(C4)C2)C3)c2ccccc2N(Cc2c(OC)ccc3cc(Br)ccc23)C1=O` [Example 13q], the 50% inhibitory concentration (IC50) in assay [1] amounted to 92 nM.
`CN[C@@H](C)C(=O)N[C@H]1CN(C(=O)CCCC(C)=O)c2ccccc2N(Cc2c(OC)ccc3cc(Br)ccc23)C1=O` [Example 27, (S)—N—((S)-1-((6-bromo-2-methoxynaphthalen-1-yl)methyl)-2-oxo-5-(5-oxohexanoyl)-2,3,4,5-tetrahydro-1H-benzo[b][1,4]diazepin-3-yl)-2-(methylamino)propanamide hydrochloride]: the concentration for half-maximal inhibition (IC50) in assay [1] is 33 nM.
In the case of `CN[C@@H](C)C(=O)N[C@H]1CN(C(=O)c2ccc(C(=O)OC)cc2)c2ccccc2N(Cc2c(OC)ccc3cc(Br)ccc23)C1=O` [Example 28, 4-[(S)-5-(6-Bromo-2-methoxy-naphthalen-1-ylmethyl)-3-((S)-2-methylamino-propionylamino)-4-oxo-2,3,4,5-tetrahydro-benzo[b][1,4]diazepine-1-carbonyl]-benzoic acid methyl ester hydrochloride], the IC50 in assay [1] came out at 39 nM.
Still for that read-out and setting: as for `CN[C@@H](C)C(=O)N[C@H]1CN(C(=O)c2ccc(C(=O)O)cc2)c2ccccc2N(Cc2c(OC)ccc3cc(Br)ccc23)C1=O` [Example 29, 4-[(S)-5-(6-Bromo-2-methoxy-naphthalen-1-ylmethyl)-3-((S)-2-methylamino-propionylamino)-4-oxo-2,3,4,5-tetrahydro-benzo[b][1,4]diazepine-1-carbonyl]-benzoic acid hydrochloride], the figure is 28 nM; as for `CN[C@@H](C)C(=O)N[C@H]1CN(C(=O)C23CC4CC(CC(C4)C2)C3)c2ccccc2N(Cc2c(OC)ccc3cc(Br)ccc23)C1=O` [Example 34, (S)—N—[(S)-5-(Adamantane-1-carbonyl)-1-(6-bromo-2-methoxy-naphthalen-1-ylmethyl)-2-oxo-2,3,4,5-tetrahydro-1H-benzo[b][1,4]diazepin-3-yl]-2-methylamino-propionamide hydrochloride], 33 nM; as for `COc1ccc2cc(Br)ccc2c1CN1C(=O)[C@@H](NC(=O)[C@@H]2CCN2)CN(C(=O)c2ccc(C(C)=O)cc2)c2ccccc21` [Example 36, (S)—N—((S)-5-(4-acetylbenzoyl)-1-((6-bromo-2-methoxynaphthalen-1-yl)methyl)-2-oxo-2,3,4,5-tetrahydro-1H-benzo[b][1,4]diazepin-3-yl)azetidine-2-carboxamide hydrochloride], 5000 nM.
In the case of `COc1ccc2cc(Br)ccc2c1CN1C(=O)[C@@H](NC(=O)[C@H](C)N)CN(C(=O)c2ccc(C(C)=O)cc2)c2ccccc21` [Example 39, (S)—N—((S)-5-(4-acetylbenzoyl)-1-((6-bromo-2-methoxynaphthalen-1-yl)methyl)-2-oxo-2,3,4,5-tetrahydro-1H-benzo[b][1,4]diazepin-3-yl)-2-aminopropanamide hydrochloride], the half-inhibitory concentration (IC50) in assay [1] stood at 19 nM.
Take `CN[C@@H](C)C(=O)N[C@H]1CN(C(=O)CCCC(C)=O)c2ccccc2N(Cc2c(OC)ccc3cc(C(=O)OC)ccc23)C1=O` [Example 46, 6-Methoxy-5-[(S)-3 ((S)-2-methylamino-propionylamino)-2-oxo-5-(5-oxo-hexanoyl)-2,3,4,5-tetrahydro-benzo[b][1,4]diazepin-1-ylmethyl]-naphthalene-2-carboxylic acid methyl ester hydrochloride]: the IC50 in assay [1] is 62 nM.
Regarding `CN[C@@H](C)C(=O)N[C@H]1CN(C(=O)CCN)c2ccccc2N(Cc2c(OC)ccc3cc(C(=O)O)ccc23)C1=O` [Example 62, 5-(((S)-5-(3-aminopropanoyl)-3-((S)-2-(methylamino)propanamido)-2-oxo-2,3,4,5-tetrahydro-1H-benzo[b][1,4]diazepin-1-yl)methyl)-6-methoxy-2-naphthoic acid hydrochloride], the IC50 in assay [1] worked out at 17 nM.
`CN[C@H](C)C(=O)N[C@H]1CN(C(=O)c2ccc(C(C)=O)cc2)c2ccccc2N(Cc2c(C)ccc3ccccc23)C1=O` [Example 68, (R)—N—((S)-5-(4-acetylbenzoyl)-1-((2-methylnaphthalen-1-yl)methyl)-2-oxo-2,3,4,5-tetrahydro-1H-benzo[b][1,4]diazepin-3-yl)-2-(methylamino)propanamide hydrochloride]: the IC50 in assay [2] was greater than 54800 nM.
